Reference: patent publication US20250034216A1, “STEREOSELECTIVE COVALENT LIGANDS FOR ONCOGENIC AND IMMUNOLOGICAL PROTEINS” (The Scripps Research Institute, priority 2021, published 2025)

Experiments:
Assay in all cases: IA-DTB cysteine engagement
Assay type in all cases: binding
CBX1_C60 = molecular target: T1, CBX1_C60 (Homo sapiens, UniProt P83916); settings: 22Rv1 cells, 20 μM probe, 1 h, relative to DMSO
T1 construct: endogenous in cells; host or cells: 22Rv1
Method in brief: (§1)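 Probe-exposed cells were lysed, IA-DTB-labeled, trypsinized and streptavidin-enriched. Multiplexed TMT quantitation gave engagement ratios versus DMSO, with non-tryptic peptides excluded and intensities normalized to median summed signal.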

LRPPRC_C571 = molecular target: T2, LRPPRC_C571 (Homo sapiens, UniProt P42704); settings: 22Rv1 cells, 20 μM probe, 1 h, relative to DMSO
T2 construct: endogenous in cells; host or cells: 22Rv1
Method in brief: as §1

PDP1_C149 = molecular target: T3, PDP1_C149 (Homo sapiens, UniProt Q9P0J1); settings: 22Rv1 cells, 20 μM probe, 1 h, relative to DMSO
T3 construct: endogenous in cells; host or cells: 22Rv1
T3 sequence (Q9P0J1 72-537): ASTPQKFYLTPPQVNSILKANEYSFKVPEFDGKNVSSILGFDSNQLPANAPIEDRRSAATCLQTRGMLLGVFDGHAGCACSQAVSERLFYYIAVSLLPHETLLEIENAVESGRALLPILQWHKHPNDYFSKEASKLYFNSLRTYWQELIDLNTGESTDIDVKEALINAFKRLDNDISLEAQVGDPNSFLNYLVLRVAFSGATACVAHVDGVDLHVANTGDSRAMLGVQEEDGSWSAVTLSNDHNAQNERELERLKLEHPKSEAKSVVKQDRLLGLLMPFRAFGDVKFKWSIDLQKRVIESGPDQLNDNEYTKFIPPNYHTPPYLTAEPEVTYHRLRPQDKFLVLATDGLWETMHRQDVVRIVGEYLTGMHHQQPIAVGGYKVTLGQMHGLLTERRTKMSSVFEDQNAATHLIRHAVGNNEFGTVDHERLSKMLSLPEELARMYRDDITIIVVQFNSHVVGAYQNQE
Method in brief: as §1

PLPPR2_C207 = molecular target: T4, PLPPR2_C207 (Homo sapiens, UniProt Q96GM1); settings: 22Rv1 cells, 20 μM probe, 1 h, relative to DMSO
T4 construct: endogenous in cells; host or cells: 22Rv1
T4 sequence (Q96GM1 1-343): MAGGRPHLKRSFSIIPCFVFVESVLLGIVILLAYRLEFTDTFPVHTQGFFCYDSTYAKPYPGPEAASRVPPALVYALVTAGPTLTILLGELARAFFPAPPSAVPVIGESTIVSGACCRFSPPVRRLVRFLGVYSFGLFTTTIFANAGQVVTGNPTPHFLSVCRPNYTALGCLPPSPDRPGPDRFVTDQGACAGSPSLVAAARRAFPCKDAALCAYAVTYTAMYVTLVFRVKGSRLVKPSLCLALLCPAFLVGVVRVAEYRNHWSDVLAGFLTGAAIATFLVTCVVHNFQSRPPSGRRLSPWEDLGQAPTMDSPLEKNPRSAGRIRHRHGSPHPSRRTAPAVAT
Method in brief: as §1

TBC1D13_C282 = molecular target: T5, TBC1D13_C282 (Homo sapiens, UniProt Q9NVG8); settings: 22Rv1 cells, 20 μM probe, 1 h, relative to DMSO
T5 construct: endogenous in cells; host or cells: 22Rv1
T5 sequence (Q9NVG8 1-400): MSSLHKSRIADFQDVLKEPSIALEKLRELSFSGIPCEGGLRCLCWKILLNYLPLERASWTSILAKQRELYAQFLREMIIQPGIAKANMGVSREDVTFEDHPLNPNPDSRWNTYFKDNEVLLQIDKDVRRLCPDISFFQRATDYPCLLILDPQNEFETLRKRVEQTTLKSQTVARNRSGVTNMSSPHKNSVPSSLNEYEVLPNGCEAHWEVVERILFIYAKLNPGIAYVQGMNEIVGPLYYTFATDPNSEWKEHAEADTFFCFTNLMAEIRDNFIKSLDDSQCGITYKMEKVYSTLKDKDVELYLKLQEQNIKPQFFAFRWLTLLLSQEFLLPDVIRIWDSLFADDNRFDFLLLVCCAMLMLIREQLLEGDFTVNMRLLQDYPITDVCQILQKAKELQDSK
Method in brief: as §1

YES1_C287 = molecular target: T6, YES1_C287 (Homo sapiens, UniProt P07947); settings: 22Rv1 cells, relative to DMSO; for % engagement YES1_C287: 20 μM probe, 1 h; for % engagement YES1_287: 5 μM probe, 1 h (FIG. 5B)
T6 construct: endogenous in cells; host or cells: 22Rv1
Method in brief: as §1

T1 sequence (P83916 whole entry): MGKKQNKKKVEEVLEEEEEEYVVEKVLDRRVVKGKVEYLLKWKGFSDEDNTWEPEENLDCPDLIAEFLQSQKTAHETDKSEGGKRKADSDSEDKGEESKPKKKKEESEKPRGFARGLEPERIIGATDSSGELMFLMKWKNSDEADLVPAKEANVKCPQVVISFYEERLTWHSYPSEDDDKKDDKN
T6 sequence (P07947 whole entry): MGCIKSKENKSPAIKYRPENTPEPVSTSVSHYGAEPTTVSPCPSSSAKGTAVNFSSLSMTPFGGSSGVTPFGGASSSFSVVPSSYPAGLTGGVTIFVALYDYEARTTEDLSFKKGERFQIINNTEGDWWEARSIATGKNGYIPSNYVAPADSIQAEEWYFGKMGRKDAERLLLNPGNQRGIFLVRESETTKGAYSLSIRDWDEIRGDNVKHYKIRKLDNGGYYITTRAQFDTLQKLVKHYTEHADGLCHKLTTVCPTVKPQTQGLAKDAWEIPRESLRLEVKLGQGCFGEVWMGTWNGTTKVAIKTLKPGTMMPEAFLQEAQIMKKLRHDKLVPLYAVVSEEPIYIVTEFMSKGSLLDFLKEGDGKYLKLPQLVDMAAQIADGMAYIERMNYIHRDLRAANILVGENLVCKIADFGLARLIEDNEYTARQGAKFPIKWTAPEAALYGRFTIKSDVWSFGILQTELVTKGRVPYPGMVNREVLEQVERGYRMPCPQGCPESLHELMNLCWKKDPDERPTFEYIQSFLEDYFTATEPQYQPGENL

| Compound | % engagement CBX1_C60 (CBX1_C60) | % engagement LRPPRC_C571 (LRPPRC_C571) | % engagement PDP1_C149 (PDP1_C149) | % engagement PLPPR2_C207 (PLPPR2_C207) | % engagement TBC1D13_C282 (TBC1D13_C282) | % engagement YES1_C287 (YES1_C287) | % engagement YES1_287 (YES1_C287) |
| --- | --- | --- | --- | --- | --- | --- | --- |
| C=CC(=O)N1C[C@@H](c2ccc(Br)cc2)[C@H]1C(=O)Nc1cccc2cccnc12 [MY-1A, (2S,3R)-1-acryloyl-3-(4-bromophenyl)-N-(quinolin-8-yl)azetidine-2-carboxamide] | −11.5% | 73.5% | 67% | 30.5% | 75.75% | 5.75% | – |
| C=CC(=O)N1C[C@H](c2ccc(Br)cc2)[C@@H]1C(=O)Nc1cccc2cccnc12 [MY-1B, (2R,3S)-1-acryloyl-3-(4-bromophenyl)-N-(quinolin-8-yl)azetidine-2-carboxamide] | −14.5% | 7% | 37.25% | 31% | 1% | 94.5% | 67.13% |
| C=CC(=O)N1C[C@H](c2ccc(Br)cc2)[C@H]1C(=O)Nc1cccc2cccnc12 [MY-3A, (2S,3S)-1-acryloyl-3-(4-bromophenyl)-N-(quinolin-8-yl)azetidine-2-carboxamide] | 14.5% | 20% | 19.25% | 46.5% | −16% | 0.5% | – |
| C=CC(=O)N1C[C@H](c2ccc(Br)cc2)[C@H]1C(=O)Nc1cccc2cccnc12 [MY-3B, (2S,3S)-1-acryloyl-3-(4-bromophenyl)-N-(quinolin-8-yl)azetidine-2-carboxamide] | 75% | 5% | 37.25% | 71% | 51.5% | 42.25% | – |
| CC#CC(=O)N1C[C@H](c2ccc(Br)cc2)[C@@H]1C(=O)Nc1cccc2cccnc12 [MY-45B, (2R,3S)-3-(4-bromophenyl)-1-(but-2-ynoyl)-N-(quinolin-8-yl)azetidine-2-carboxamide] | – | – | – | – | – | – | 5.50% |
